# Test results published in ChEMBL document CHEMBL4229345, “Inhibition of trypanosome alternative oxidase without its N-terminal mitochondrial targeting signal (ΔMTS-TAO) by cationic and non-cationic 4-hydroxybenzoate and 4-alkoxybenzaldehyde derivatives active against T. brucei and T. congolense” (Eur J Med Chem, 2018).
# pEC50, pIC50, pKi: −log10 of the molar value.
# Columns and labels:
# [1] = Selectivity index, ratio of CC50 for HFF cells to EC50 for bloodstream trypomastigote stage of wild-type Trypanosoma brucei brucei Lister 427; format: toxicity; settings: human, read-out: Ratio CC50/EC50
# [2] = tested on: Trypanosoma brucei brucei; assay: Anti-parasitic activity against bloodstream trypomastigote stage of wild-type Trypanosoma brucei brucei Lister 427 after 48 hrs in presence of 5 mM glycerol by resazurin-based assay; format: functional, organism-based; settings: Lister 427, 48 h
# [3] = tested on: Trypanosoma brucei brucei; assay: Anti-parasitic activity against bloodstream trypomastigote stage of wild-type Trypanosoma brucei brucei Lister 427 after 48 hrs by resazurin-based assay; format: functional, organism-based; settings: Lister 427, 48 h
# Trypanosoma brucei = assay: Anti-parasitic activity against bloodstream trypomastigote stage of pentamidine/diminazene/melaminophenyl arsenical resistant Trypanosoma brucei B48 after 48 hrs by resazurin-based assay; format: functional, organism-based; settings: B48, 48 h
# [4] = Resistance factor, ratio of EC50 for bloodstream trypomastigote stage of pentamidine/diminazene/melaminophenyl arsenical resistant Trypanosoma brucei B48 to EC50 for bloodstream trypomastigote stage of wild-type Trypanosoma brucei brucei Lister 427; format: functional
# [5] = tested on: Trypanosoma brucei brucei; assay: Resistance factor, ratio of EC50 for bloodstream trypomastigote stage of wild-type Trypanosoma brucei brucei Lister 427 in presence of 5 mM glycerol to EC50 for bloodstream trypomastigote stage of wild-type Trypanosoma brucei brucei Lister 427; format: functional
# [6] = tested on: Trypanosoma brucei brucei; assay: Resistance factor, ratio of EC50 for bloodstream trypomastigote stage of Trypanosoma brucei brucei with AQP2/3-dd knock out to EC50 for bloodstream trypomastigote stage of wild-type Trypanosoma brucei brucei Lister 427; format: functional
# [7] = Cytotoxicity against HFF cells assessed as reduction in cell viability after 30 hrs by resazurin-based assay; settings: human
# [8] = tested on: Trypanosoma brucei brucei; assay: Anti-parasitic activity against bloodstream trypomastigote stage of Trypanosoma brucei brucei with AQP2/3-dd knock out after 48 hrs by resazurin-based assay; format: functional, organism-based
# [9] = tested on: Trypanosoma brucei brucei; assay: Resistance factor, ratio of EC50 for bloodstream trypomastigote stage of Trypanosoma brucei brucei AQP triple knock out to EC50 for bloodstream trypomastigote stage of wild-type Trypanosoma brucei brucei Lister 427; format: functional
# [10] = Inhibition of recombinant N-terminal His6 tagged SUMO-fused Trypanosoma brucei brucei TC221 TAO MTS deletion mutant expressed in Escherichia coli FN102 preincubated for 2 mins followed by ubiquinol-1 addition measured over 2 mins by double beam-dual wavelength UV-spectrophotometry
# [11] = tested on: Trypanosoma brucei brucei; assay: Anti-parasitic activity against bloodstream trypomastigote stage of Trypanosoma brucei brucei with AQP triple knock out after 48 hrs by resazurin-based assay; format: functional, organism-based
# Trypanosoma congolense [12] = assay: Anti-parasitic activity against bloodstream form of Trypanosoma congolense IL3000 after 48 hrs by resazurin-based assay; format: functional, organism-based; settings: IL3000, 48 h
# [13] = Selectivity index, ratio of CC50 for HEK cells to EC50 for bloodstream trypomastigote stage of wild-type Trypanosoma brucei brucei Lister 427; format: toxicity; settings: human, read-out: Ratio CC50/EC50
# [14] = Cytotoxicity against HEK cells assessed as reduction in cell viability after 30 hrs by resazurin-based assay; settings: human
# [15] = Selectivity index, ratio of CC50 for HFF cells to EC50 for bloodstream form of Trypanosoma congolense IL3000; format: toxicity; settings: human, read-out: Ratio CC50/EC50
# [16] = tested on: Trypanosoma brucei brucei; assay: Potency index, ratio of diminazene EC50 to test compound EC50 for anti-parasitic activity against bloodstream trypomastigote stage of wild-type Trypanosoma brucei brucei Lister 427; format: functional
# [17] = Half life in mouse serum by LC/MS analysis; format: ADME, cell-free
# Trypanosoma congolense [18] = assay: Potency index, ratio of diminazene EC50 to test compound EC50 for anti-parasitic activity against bloodstream form of Trypanosoma congolense IL3000; format: functional
# [19] = Competitive inhibition of recombinant N-terminal His6 tagged SUMO-fused Trypanosoma brucei brucei TC221 TAO MTS deletion mutant expressed in Escherichia coli FN102 preincubated for 2 mins followed by ubiquinol-1 addition measured over 2 mins by Lineweaver-Burk plot analysis
Structure (SMILES),selectivity ratio [1],pEC50 [2],pEC50 [3],pEC50 (Trypanosoma brucei),Ratio EC50 [4],Ratio EC50 [5],Ratio EC50 [6],CC50 at 30 h [7] [µM],pEC50 [8],Ratio EC50 [9],pIC50 [10],pEC50 [11],pEC50 (Trypanosoma congolense [12]),selectivity ratio [13],CC50 at 30 h [14] [µM],selectivity ratio [15],Ratio EC50 [16],half-life [17] [min],Ratio EC50 (Trypanosoma congolense [18]),pKi [19]
O=C(OCCCCCCCCCCCCCCBr)c1ccc(O)cc1F,> 13,5.14,4.83,4.76,1.2,0.49,0.46,> 200,5.17,0.48,7.52,5.15,< 4.30,–,–,–,–,–,–,–
O=C(OCCCCCCCCCCCCCCCCBr)c1ccc(O)cc1O,–,4.95,–,–,1.07,0.24,0.32,–,4.84,0.11,7.91,5.29,–,> 8,> 400,–,–,–,–,–
"O=C(O)c1ccc(O)cc1O [2,4-DIHYDROXYBENZOIC ACID]",–,–,–,–,–,–,–,–,–,0.96,3.94,4.78,–,–,–,–,–,–,–,–
O=C(OCCCCCCCCCCCCCCCCOC(=O)c1ccc(O)cc1O)c1ccc(O)cc1O,–,4.91,4.57,4.50,1.2,0.46,0.54,–,4.84,0.35,7.91,5.03,< 4.00,> 15,> 400,–,–,–,–,–
O=C(OCCCCCCCCCCCCCC[P+](c1ccccc1)(c1ccccc1)c1ccccc1)c1ccc(O)cc1F.[Br-],> 344000,9.41,9.24,9.12,1.3,0.66,0.43,> 200,9.60,0.64,7.52,9.43,7.74,–,–,> 11000,5 - 40,< 15,5 - 40,–
O=Cc1ccc(OCCCCCCCCCCCCCCBr)cc1O,> 11,4.97,4.75,4.81,0.9,0.61,0.48,> 200,5.08,0.45,7.14,5.10,4.37,–,–,> 4.6,–,–,–,–
O=COCCCCCCCCCCCCCCOc1ccc(C=O)c(O)c1,> 52,5.74,5.42,5.44,1,0.48,0.38,> 200,5.85,0.48,6.48,5.74,–,–,–,–,–,–,–,–
N=C(N)c1ccc(OCCCCCOc2ccc(C(=N)N)cc2)cc1 [PENTAMIDINE],–,–,8.48,–,285,1.14,14.1,–,7.33,19.2,–,7.19,–,–,–,–,–,–,–,–
Cc1cc(O)ccc1C(=O)OCCCCCCCCCCCCCCOC(=O)c1ccc(O)cc1C,–,3.40,3.40,3.40,–,–,–,> 200,3.40,–,7.89,3.40,3.40,–,–,–,–,–,–,–
O=C(OCCCCCCCCCCCCOC(=O)c1ccc(O)cc1O)c1ccc(O)cc1O,–,4.87,4.48,4.47,1,0.41,0.81,–,4.57,0.27,8.15,5.05,< 4.00,> 12,> 400,–,–,–,–,–
O=C(OCCCCBr)c1ccc(O)cc1O,–,3.40,3.40,3.40,–,–,–,> 200,3.40,–,6.35,3.40,–,–,–,–,–,–,–,–
Cc1cc(O)ccc1C(=O)OCCCCCCCCCCCCCCOC=O,> 48,5.11,5.39,5.35,1.1,1.92,0.34,> 200,5.85,0.45,8.96,5.74,–,–,–,–,–,–,–,8.39
O=COCCCCCCCCCCOC(=O)c1ccc(O)cc1O,–,4.76,–,–,0.69,0.55,0.86,–,4.56,0.49,6.82,4.81,–,> 12,> 400,–,–,–,–,–
O=C(O)c1ccc(O)cc1F,–,–,–,–,–,–,–,–,–,–,3.94,–,–,–,–,–,–,–,–,–
